These results are taken from publication PMC3138873 (Biochemical pharmacology, 2011).

Where two headings read alike, the source gives them in different places.

In assay [1] the target is T1, AC1 (Bos taurus, UniProt P19754). As to conditions: read-out: AC1 Ki; Sf9 membranes, 5 mM MnCl2, 100 μM FS; mean ± SD; cited from earlier work.
For assay [2], the target named is T2, AC5 (Canis lupus familiaris, UniProt P30803). Particulars: read-out: AC5 Ki; Sf9 membranes, 5 mM MnCl2, 100 μM FS; mean ± SD; cited from earlier work.
Assay [3] has as its target T3, AC2 (Rattus norvegicus, UniProt P26769). Particulars: read-out: AC2 Ki; Sf9 membranes, 5 mM MnCl2, 100 μM FS; mean ± SD; cited from earlier work.
The target of assay [4] is T4, VC1:IIC2 (UniProt P26769+P30803). Nature of the assay: Inhibition of the catalytic activity of purified VC1:IIC2. Format: biochemical, mammalian.
For assay [5], the target named is T4, VC1:IIC2. As to conditions: cited from earlier work.
In assay [6] the target is ACs 1, 2 and 5. Particulars: read-out: Ki for ACs 1, 2 and 5; TNP-nucleotides; cited from earlier work.
In assay [7] the target is T3, AC2. As to the kind of experiment: AC activity assay in Sf9 membranes expressing recombinant AC2. Format: biochemical, mammalian.
Assay [8] deals with T2, AC5. Nature of the assay: AC activity assay in Sf9 membranes expressing recombinant AC5. The format is biochemical, mammalian. Particulars: for Potency difference AC5 versus AC2: comparison of Ki at AC5 versus AC2.
Assay [9] deals with T1, AC1. As to the kind of experiment: AC activity assay in Sf9 membranes expressing recombinant AC1. Format: biochemical, mammalian.
The mark [10] stands for this setting: read-out: VC1:IIC2 Mn2+ + FS + Gsα-GTPγS Ki, maximally stimulated: 10 mM MnCl2, 100 μM FS, 100 μM ATP, mean ± SD.
Where [11] appears, read: read-out: Ki for VC1:IIC2, TNP-nucleotides.
The mark [12] stands for this setting: read-out: AC2 Ki, Sf9 membranes, 5 mM MnCl2, 100 μM FS, mean ± SD.
[13] abbreviates: read-out: AC5 Ki, Sf9 membranes, 5 mM MnCl2, 100 μM FS, mean ± SD.
Where [14] appears, read: read-out: AC1 Ki, Sf9 membranes, 5 mM MnCl2, 100 μM FS, mean ± SD.
Where [15] appears, read: read-out: VC1:IIC2 Mn2+ + FS + Gsα-GTPγS Ki, maximally stimulated: 10 mM MnCl2, 100 μM FS, Gsα-GTPγS, mean ± SD.
Setting [16] is: VC1:IIC2 Mn2+ + FS + Gsα-GTPγS Ki, maximally stimulated: 10 mM MnCl2, 100 μM FS, 100 μM ATP, mean ± SD.

T1 sequence (P19754 whole entry): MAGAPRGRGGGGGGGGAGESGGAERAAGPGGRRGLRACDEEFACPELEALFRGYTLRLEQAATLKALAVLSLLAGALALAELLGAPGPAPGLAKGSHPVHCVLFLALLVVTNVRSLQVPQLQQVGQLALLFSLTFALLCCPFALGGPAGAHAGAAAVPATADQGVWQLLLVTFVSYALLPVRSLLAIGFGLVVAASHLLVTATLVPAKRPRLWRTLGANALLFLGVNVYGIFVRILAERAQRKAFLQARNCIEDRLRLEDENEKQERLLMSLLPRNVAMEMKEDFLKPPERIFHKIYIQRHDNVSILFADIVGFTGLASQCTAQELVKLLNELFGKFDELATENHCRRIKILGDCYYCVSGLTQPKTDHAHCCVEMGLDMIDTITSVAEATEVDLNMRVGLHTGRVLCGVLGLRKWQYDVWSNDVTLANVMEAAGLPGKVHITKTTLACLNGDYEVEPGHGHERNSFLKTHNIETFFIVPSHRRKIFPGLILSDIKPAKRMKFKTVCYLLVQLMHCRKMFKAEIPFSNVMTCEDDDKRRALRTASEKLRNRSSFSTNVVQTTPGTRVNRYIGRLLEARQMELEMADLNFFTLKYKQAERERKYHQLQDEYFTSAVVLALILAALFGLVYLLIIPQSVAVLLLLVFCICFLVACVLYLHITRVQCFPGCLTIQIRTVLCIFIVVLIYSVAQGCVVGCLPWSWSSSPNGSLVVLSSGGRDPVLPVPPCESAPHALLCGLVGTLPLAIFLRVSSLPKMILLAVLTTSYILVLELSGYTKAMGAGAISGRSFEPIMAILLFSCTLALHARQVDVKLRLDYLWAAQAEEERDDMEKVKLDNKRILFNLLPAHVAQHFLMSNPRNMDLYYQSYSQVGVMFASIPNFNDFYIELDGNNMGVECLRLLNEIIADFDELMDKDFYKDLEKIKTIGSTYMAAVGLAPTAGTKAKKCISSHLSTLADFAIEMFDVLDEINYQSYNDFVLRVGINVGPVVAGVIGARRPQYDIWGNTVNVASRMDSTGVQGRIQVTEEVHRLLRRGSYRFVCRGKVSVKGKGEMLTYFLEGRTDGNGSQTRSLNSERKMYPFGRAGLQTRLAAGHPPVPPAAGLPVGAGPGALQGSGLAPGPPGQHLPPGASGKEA
T4 sequence (P30803 398-765 limits assumed): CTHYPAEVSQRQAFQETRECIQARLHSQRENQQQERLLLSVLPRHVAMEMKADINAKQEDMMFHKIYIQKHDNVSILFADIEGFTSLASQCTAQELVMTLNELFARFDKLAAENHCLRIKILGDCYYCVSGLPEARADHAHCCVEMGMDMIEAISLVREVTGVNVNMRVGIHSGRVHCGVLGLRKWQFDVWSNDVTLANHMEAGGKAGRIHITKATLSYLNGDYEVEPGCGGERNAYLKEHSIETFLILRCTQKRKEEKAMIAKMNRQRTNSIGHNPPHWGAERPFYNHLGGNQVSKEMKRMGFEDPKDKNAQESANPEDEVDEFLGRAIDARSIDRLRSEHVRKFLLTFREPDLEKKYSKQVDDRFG
T4 sequence (P26769 821-1090 limits assumed): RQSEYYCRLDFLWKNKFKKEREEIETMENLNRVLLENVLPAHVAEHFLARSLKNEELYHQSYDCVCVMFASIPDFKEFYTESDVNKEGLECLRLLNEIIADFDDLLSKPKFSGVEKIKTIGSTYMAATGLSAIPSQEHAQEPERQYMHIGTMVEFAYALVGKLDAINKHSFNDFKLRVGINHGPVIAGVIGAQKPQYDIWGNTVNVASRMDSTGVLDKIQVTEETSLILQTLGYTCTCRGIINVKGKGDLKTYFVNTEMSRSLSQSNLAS
T4 sequence (P04896 whole entry partner): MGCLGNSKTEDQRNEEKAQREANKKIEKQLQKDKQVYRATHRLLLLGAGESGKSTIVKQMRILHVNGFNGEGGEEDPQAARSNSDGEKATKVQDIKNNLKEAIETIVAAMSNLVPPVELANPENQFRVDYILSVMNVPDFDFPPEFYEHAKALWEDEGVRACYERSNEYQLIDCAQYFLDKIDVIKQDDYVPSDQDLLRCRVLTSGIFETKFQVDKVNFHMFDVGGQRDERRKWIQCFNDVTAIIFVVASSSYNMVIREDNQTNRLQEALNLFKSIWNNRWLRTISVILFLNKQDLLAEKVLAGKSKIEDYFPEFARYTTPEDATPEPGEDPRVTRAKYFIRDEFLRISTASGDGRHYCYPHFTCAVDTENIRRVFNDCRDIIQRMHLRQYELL
T3 sequence (P26769 whole entry): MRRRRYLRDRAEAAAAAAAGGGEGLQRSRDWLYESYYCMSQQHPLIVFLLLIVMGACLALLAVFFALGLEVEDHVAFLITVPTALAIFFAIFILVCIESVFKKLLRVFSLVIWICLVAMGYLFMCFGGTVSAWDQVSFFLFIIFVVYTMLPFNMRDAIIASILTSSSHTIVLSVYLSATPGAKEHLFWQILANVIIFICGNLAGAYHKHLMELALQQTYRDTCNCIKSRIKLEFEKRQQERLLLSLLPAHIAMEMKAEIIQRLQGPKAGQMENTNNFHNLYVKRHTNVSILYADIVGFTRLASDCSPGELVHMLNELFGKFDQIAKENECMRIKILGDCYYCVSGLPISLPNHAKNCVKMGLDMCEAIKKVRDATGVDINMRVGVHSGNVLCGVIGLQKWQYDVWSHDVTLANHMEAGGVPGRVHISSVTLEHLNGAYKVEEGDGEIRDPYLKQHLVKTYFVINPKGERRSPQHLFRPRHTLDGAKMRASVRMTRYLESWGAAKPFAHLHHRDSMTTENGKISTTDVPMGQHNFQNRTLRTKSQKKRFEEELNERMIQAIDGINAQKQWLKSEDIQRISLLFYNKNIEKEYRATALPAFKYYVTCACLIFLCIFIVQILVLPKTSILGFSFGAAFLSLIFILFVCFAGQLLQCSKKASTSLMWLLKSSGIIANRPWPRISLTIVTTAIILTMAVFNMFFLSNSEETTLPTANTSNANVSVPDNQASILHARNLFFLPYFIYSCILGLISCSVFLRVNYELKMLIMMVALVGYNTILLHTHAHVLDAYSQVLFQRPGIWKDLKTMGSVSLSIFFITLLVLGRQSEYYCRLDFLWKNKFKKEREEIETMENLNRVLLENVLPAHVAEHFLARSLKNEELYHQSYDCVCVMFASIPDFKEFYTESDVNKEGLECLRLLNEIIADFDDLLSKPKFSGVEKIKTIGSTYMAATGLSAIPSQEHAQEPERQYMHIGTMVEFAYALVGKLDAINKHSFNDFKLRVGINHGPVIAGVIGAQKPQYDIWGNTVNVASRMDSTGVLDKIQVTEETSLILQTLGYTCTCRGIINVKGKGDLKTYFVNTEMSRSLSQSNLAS
T2 sequence (P30803 whole entry): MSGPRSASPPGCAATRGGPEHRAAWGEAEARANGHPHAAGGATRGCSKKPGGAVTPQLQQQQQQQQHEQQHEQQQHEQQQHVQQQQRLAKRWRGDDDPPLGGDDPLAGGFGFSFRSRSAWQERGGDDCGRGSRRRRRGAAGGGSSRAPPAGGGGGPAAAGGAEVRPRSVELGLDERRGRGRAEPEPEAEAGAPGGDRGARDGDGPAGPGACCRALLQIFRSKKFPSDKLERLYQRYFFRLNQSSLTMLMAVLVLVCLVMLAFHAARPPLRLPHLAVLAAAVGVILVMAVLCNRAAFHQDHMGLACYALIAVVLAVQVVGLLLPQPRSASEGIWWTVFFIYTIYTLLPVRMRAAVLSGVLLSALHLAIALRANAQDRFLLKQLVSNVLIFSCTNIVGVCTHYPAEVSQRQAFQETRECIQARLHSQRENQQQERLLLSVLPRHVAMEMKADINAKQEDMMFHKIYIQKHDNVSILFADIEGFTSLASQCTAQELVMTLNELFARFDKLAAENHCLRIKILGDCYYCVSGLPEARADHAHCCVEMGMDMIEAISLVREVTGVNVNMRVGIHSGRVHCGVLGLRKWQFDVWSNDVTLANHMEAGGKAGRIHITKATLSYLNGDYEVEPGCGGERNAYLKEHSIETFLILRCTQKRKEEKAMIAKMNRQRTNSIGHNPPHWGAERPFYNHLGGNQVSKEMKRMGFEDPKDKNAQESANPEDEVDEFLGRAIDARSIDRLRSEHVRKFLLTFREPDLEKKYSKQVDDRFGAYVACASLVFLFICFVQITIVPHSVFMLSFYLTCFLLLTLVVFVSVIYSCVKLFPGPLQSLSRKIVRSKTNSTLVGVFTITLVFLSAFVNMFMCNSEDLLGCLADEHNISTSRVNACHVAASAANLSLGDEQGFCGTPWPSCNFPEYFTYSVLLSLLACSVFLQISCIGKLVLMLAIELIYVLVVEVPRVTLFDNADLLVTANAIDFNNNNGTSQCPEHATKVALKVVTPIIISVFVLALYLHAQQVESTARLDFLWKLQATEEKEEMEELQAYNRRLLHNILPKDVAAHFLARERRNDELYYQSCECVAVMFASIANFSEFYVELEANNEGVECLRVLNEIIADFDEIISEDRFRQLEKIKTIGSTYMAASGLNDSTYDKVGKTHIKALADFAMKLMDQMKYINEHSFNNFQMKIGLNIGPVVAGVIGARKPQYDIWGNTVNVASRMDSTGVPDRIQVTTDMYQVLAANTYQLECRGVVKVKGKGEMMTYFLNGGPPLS

The term Ki denotes the equilibrium dissociation constant of an inhibitor or competing ligand from its target. Take “2’(3’)-O-(N-methylanthraniloyl)-cytidine 5’-triphosphate [compound 12]”: the inhibition constant Ki was 150 ± 30 nM in assay [1], 150 ± 30 nM in [2], 690 ± 20 nM in [3] and 9.2 ± 1.5 nM in assay [4] (setting [10]).

As for “2’,3’-O-(2,4,6-trinitrophenyl)-CTP [reference compound]”, the Ki is 100 to 300 nM in [5] (setting [11]) and 10 to 100 nM in assay [6].

Turning to “2’,3’-O-(2,4,6-trinitrophenyl)-UTP [reference compound]”, the inhibitory constant (Ki) in assay [5] (setting [11]) was 100 to 300 nM; in assay [6], 10 to 100 nM.

Regarding “2’,3’-O-(N-methylanthraniloyl)-adenosine 5’-triphosphate [compound 5]”, the Ki in [1] was 150 ± 40 nM.

“2’,3’-O-(N-methylanthraniloyl)-guanosine 5’-[γ-thio]triphosphate [compound 4]”: the Ki stood at 370 ± 81 nM in [7] (setting [12]), 34 ± 8 nM in assay [8] (setting [13]), 24 ± 4.1 nM in assay [4] (setting [10]) and 63 ± 17 nM in assay [9] (setting [14]).

For “2’,3’-O-(N-methylanthraniloyl)-guanosine 5’-triphosphate [compound 1]”, the inhibitory constant (Ki) in assay [5] (setting [15]) is 18 ± 6 nM; in [7] (setting [12]), 610 ± 70 nM; in assay [8] (setting [13]) it was 53 ± 12 nM; in assay [9] (setting [14]) it was 90 ± 18 nM. Also, in assay [8], the “Potency difference AC5 versus AC2” value is on record as greater than 10 fold.

For the molecule “2’,3’-O-(N-methylanthraniloyl)-uridine 5’-triphosphate [compound 11]”, the Ki was 460 ± 60 nM in assay [7] (setting [12]), 32 ± 2 nM in [8] (setting [13]), 6.1 ± 1.3 nM in assay [4] (setting [10]) and 46 ± 4 nM in assay [9] (setting [14]). Moreover, the “Potency difference AC5 versus AC2” value in [8] was greater than 10 fold.

With “2’,3’-O-(N-methylanthraniloyl)-xanthosine 5’-triphosphate [compound 10]”, the Ki was 1200 nM in assay [5] (setting [15]), 3000 nM in assay [7] (setting [12]), 1300 nM in assay [8] (setting [13]) and 1100 nM in [9] (setting [14]).

Turning to “2’,3’-O-anthraniloyl-adenosine 5’-diphosphate [compound 15]”, the Ki was determined as 2900 nM in assay [7] (setting [12]) and 860 ± 10 nM in assay [9] (setting [14]).

On to “2’,3’-O-anthraniloyl-adenosine 5’-triphosphate [compound 14]”, for which the inhibition constant Ki came to 640 ± 70 nM in [7] (setting [12]) and 130 ± 20 nM in assay [9] (setting [14]).

On to “2’,3’-O-anthraniloyl-guanosine 5’-triphosphate [compound 13]”, for which the inhibition constant Ki in assay [4] (setting [10]) amounted to 10 ± 1.7 nM.

Take `CNc1ccccc1C(=O)O[C@H]1C[C@H](n2cnc3c(=O)[nH]c(N)nc32)O[C@@H]1COP(=O)(O)OP(=O)(O)OP(=O)(O)O` [compound 2, 2’-deoxy-3’-O-(N-methylanthraniloyl)-guanosine 5’-triphosphate]: the Ki in [7] came out at 1300 ± 210 nM; in [8] it was 410 ± 35 nM; in [9], 270 ± 30 nM.

Turning to `CNc1ccccc1C(=O)O[C@@H]1C[C@@H](COP(=O)(O)OP(=O)(O)OP(=O)(O)O)O[C@H]1n1cnc2c(=O)[nH]c(N)nc21` [compound 3, 3’-deoxy-2’-O-(N-methylanthraniloyl)-guanosine 5’-triphosphate], the Ki amounted to 8700 nM in assay [7], 1800 nM in assay [8], 350 ± 43 nM in [4] (setting [16]) and 1800 nM in [9].

For `CNc1ccccc1C(=O)O[C@H]1C[C@H](n2cnc3c(N)ncnc32)O[C@@H]1COP(=O)(O)OP(=O)(O)OP(=O)(O)O` [compound 6, 2’-deoxy-3’-O-(N-methylanthraniloyl)-adenosine 5’-triphosphate], the Ki worked out at 4800 nM in assay [7], 360 ± 54 nM in assay [8], 190 ± 3.4 nM in assay [4] (setting [16]) and 320 ± 19 nM in assay [9]. Also, the “Potency difference AC5 versus AC2” value in assay [8] is reported as greater than 10 fold.

As to `CNc1ccccc1C(=O)O[C@@H]1C[C@@H](COP(=O)(O)OP(=O)(O)OP(=O)(O)O)O[C@H]1n1cnc2c(N)ncnc21` [compound 7, 3’-deoxy-2’-O-(N-methylanthraniloyl)-adenosine 5’-triphosphate], the inhibition constant (Ki) in [7] stood at 540 ± 20 nM; in assay [8], 65 ± 5 nM; in [4] (setting [16]), 90 ± 2.2 nM; in [9] it was 470 ± 20 nM.
